Laboratory results from patent US12060408B2, “Screening assays, modulators and modulation of activation of Receptor for Advanced Glycation End-products (RAGE)” (Monash University, priority 2017, dated 2024).

Tests used:
[1] = biological target: T1, IQGAP-1 (Cricetulus griseus, UniProt A0A8C2MPD4); assay: Pull down from cytosolic components on a column coated with S391A-RAGE362-404; type: binding; conditions: column coated with the peptide
T1 construct: 5×10^7 CHO cells stably transfected with Hs-AT1R were lysed using RIPA buffer; endogenous in cells; host or cells: lysate of CHO cells stably transfected with Hs-AT1R
T1 sequence (A0A8C2MPD4 1-1657): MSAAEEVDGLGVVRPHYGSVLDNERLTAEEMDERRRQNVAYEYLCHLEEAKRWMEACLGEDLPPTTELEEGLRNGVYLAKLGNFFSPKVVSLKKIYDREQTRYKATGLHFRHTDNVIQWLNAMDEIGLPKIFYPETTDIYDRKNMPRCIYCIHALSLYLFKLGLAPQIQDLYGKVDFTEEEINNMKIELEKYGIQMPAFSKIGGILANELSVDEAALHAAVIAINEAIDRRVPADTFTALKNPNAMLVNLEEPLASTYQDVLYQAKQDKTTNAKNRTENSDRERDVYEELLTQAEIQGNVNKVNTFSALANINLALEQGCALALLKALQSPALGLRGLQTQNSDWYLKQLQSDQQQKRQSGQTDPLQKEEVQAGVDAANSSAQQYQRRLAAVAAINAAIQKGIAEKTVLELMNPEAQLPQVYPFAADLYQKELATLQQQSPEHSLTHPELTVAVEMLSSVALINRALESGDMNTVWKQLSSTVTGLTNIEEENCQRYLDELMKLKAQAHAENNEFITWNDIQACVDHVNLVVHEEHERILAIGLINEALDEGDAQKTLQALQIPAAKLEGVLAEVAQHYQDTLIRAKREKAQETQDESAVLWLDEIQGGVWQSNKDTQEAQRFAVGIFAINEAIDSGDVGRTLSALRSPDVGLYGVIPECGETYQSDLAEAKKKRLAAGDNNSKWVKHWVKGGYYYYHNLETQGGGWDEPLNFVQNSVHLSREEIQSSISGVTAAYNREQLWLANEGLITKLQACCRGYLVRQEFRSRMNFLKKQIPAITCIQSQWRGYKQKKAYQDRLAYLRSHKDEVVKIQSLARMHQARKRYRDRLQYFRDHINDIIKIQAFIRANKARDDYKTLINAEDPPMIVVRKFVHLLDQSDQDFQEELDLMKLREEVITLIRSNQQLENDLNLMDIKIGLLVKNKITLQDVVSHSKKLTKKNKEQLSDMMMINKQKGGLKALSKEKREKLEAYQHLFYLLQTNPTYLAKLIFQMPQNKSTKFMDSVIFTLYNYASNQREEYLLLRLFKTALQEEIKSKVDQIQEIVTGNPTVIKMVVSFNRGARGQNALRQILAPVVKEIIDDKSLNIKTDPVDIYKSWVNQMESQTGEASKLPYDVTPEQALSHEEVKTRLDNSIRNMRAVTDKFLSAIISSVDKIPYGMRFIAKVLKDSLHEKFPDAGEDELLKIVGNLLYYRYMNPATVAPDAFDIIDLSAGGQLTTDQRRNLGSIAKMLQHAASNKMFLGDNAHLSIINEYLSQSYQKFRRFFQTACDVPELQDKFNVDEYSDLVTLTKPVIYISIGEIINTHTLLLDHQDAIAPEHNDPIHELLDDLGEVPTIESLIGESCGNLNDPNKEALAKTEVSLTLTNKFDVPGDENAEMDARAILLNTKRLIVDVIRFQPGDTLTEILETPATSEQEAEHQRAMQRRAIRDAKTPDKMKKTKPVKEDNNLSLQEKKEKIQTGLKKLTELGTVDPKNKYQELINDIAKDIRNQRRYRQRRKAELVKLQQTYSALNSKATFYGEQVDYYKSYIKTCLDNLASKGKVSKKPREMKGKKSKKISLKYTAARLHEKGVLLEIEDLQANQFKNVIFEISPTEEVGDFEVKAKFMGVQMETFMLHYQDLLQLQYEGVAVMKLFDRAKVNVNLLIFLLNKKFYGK
Excerpt: FIG. 11C. Pull down of a protein identified as IQGAP-1 from other cytosolic components using a column coated with the mutant RAGE cytosolic tail (S391A-RAGE362-404), as well as IQGAP-1 associated proteins, ezrin/radixin/moesin and the GPCR olfactory receptor 2T2.

[2] = test system: apoE KO mice; assay: Aortic plaque area quantitation (Sudan IV staining of aortic arch); type: in vivo, mouse
Excerpt: C57bl6 mice, AGER knockout (KO) mice, apoE KO mice, AGER/apoE double knockout (DKO), Ace2/apoE DKO and AGER/Ace2/apoE triple knockout (TKO) mice were sourced and generated in-house at the AMPREP animal house. All mice were bred on a C57bl6 background. For experimental studies, male mice aged 6-8 weeks and weighing between 20-25 g were used, with at least 8 animals per group for in vivo studies and n=6/group for ex vivo studies. Throughout the study animals were given access to mouse chow and water ad libitum. All experiments were approved by the animal ethics committee of the Alfred Medical Research Precinct and conducted in accordance with the Guide for the Care and Use of Laboratory Animals published by the US National Institutes of Health (NIH Publication No. 85-23, revised 1996).
Aortic Plaque Area Quantitation Method
Aortic arches were removed from mice, cleaned of excess fat, placed in 10% neutral buffered formalin and subsequently stained with Sudan IV-Herxheimer's solution (0.5% w/vol; Gurr, BDH Limited, Poole, UK). Aortae were then dissected longitudinally, and pinned flat onto a wax pad. Plaque accumulation across the aortic arch was quantitated as the percentage area stained red.
Angiotensin Infusion Model […]

[3] = Circulating concentration of RAGE ligands (S100A8/A9, AGEs, methylglyoxal); type: in vivo, mouse; conditions: four-week infusion 1 μg/kg/min
Experimental: Circulating Concentration of RAGE Ligands
Changes in circulating levels of RAGE ligands were assessed in animal models. S100A8/A9 levels were estimated by ELISA (Immundiagnostik, Germany) performed according to the manufacturer's instructions. Plasma AGEs were measured by in-house ELISA. Plasma methylglyoxal, a reactive precursor of AGEs, was measured by HPLC.

[4] = test system: PMAEC; assay: Static adhesion assay (labelled THP-1 cells on PMAEC monolayer); type: cell-based, mouse; conditions: PMAEC from C57bl6 mice, 1 μM
Experimental: Functional responsiveness to Ang II was determined in PMAEC using a static adhesion assay, in which PMAEC were seeded at 50,000 cells per well into six-well plates and allowed to grow to 70% confluency before treatment with 1 μM Ang II for 24 hours. Human THP-1 cells, which mimic monocytes and macrophages in the vasculature, were stained using CellVue Burgundy Fluorescent Cell labelling Kit (LICOR) as per manufacturer's instructions before seeding them onto the endothelial cell monolayers at 3×10^5 viable cells per well and incubated for 20 minutes at 37° C. The cells that had not adhered to the endothelial cell monolayer were removed and the wells washed with PBS before fixing with 4% formalin in PBS for 30 min. The adhesion of cells was then quantitated using the ODYSSEY infra-red imager (Licor). Additionally adhered cells were photographed at ×20 using light microscopy (Olympus CKX41).

[5] = biological target: AT1 receptor (Homo sapiens, UniProt P30556); assay: Receptor-HIT BRET, β-arrestin2/Venus with RAGE/Rluc8 and AT1 receptor; type: cell-based
AT1 receptor, sequence (P30556 whole entry): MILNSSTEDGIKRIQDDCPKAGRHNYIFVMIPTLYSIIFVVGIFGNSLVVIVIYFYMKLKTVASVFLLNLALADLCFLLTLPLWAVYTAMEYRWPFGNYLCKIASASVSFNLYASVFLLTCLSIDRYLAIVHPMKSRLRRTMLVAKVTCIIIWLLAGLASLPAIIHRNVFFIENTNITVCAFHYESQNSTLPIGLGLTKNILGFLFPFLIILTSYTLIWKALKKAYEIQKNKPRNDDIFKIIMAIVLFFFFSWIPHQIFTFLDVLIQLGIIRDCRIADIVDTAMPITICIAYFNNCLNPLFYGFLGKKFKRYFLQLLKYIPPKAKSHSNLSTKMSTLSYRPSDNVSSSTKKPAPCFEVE
AT1 receptor, sequence (P32121 whole entry partner): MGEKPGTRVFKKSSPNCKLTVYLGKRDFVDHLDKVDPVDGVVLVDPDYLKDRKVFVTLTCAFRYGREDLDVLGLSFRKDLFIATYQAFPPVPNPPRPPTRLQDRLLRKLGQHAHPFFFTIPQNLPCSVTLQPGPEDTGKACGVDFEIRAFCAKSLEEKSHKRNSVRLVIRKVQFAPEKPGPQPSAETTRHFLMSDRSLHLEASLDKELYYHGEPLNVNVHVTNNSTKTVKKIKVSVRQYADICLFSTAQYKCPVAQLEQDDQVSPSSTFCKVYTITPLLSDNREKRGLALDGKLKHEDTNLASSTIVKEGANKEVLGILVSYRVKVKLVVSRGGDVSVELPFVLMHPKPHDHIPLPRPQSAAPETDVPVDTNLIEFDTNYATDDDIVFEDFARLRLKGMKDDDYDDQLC
Experimental: The BRET ratio was calculated by subtracting the ratio of ‘acceptor emission’ over ‘donor emission’ for a cell sample expressing Rluc8-tagged protein alone from the same ratio for a cell sample expressing both Rluc8 and Venus-tagged proteins. Alternatively, the ligand-induced BRET signal was calculated by subtracting the ratio of ‘acceptor emission’ over ‘donor emission’ for a vehicle-treated cell sample from the same ratio for a second aliquot of the same cells treated with agonist.
The fluorescence/luminescence ratio was generated by dividing the fluorescence values in arbitrary units (obtained with the EnVision) by the luminescence values also in arbitrary units (obtained as part of the BRET assay).

[6] = test system: apoE KO mice; assay: Aortic expression of pro-inflammatory mediators by quantitative real-time PCR (aortic homogenates); type: in vivo, mouse; conditions: four-week infusion 1 μg/kg/min
Experimental: Aortic Expression of Pro-Inflammatory Mediators by Quantitative Real-Time PCR
(§1) At the end of each study period, thoracic and abdominal aortae were placed in TRIZOL, snap frozen and stored at −80° C. RNA extraction and cDNA synthesis was performed in aortic homogenates using the Trizol method. Gene expression of pro-atherogenic mediators including adhesion molecules, cytokines, inflammatory, oxidative stress and macrophage markers, were estimated in aortic homogenates by quantitative real-time RT-PCR, performed using the TaqMan system based on real-time detection of accumulated fluorescence (ABI Prism 7700, Perkin-Elmer Inc, PE Biosystems, Foster City, CA, USA). Gene expression was normalized to 18S mRNA and reported as fold change compared to the level of expression in untreated control mice/cells, which were given an arbitrary value of 1.

[7] = test system: isolated aortae; assay: Ex vivo exposure of isolated aortae to Ang II, expression of pro-atherogenic mediators by RT-PCR; design: species or system mouse; conditions: 1 μM
Experimental: as §1
Ex Vivo Studies in Isolated Aortae
Aortae were isolated from apoE KO and AGER/apoE DKO mice, divided and placed in Krebs buffer and maintained at physiological pH by infusing carbogen gas (95% O2; 5% CO2) through the buffer at 37° C. Vessels (n=6/group) were then treated with Ang II (1 μM) for 4 hours. After which time, whole blood labelled with DilC18 (1:1000) was then perfused through the aorta at 0.12 ml/min. Images and videos of vessel wall-cell interactions were observed using a fluorescence microscope (Zeiss Discovery.V20), coupled to a digital camera ([…] ORCA-ER) and analysed with AxioVison software.

Substance | pull down of IQGAP-1 (and ezrin/radixin/moesin, olfactory receptor 2T2) from cytosolic components [1] | atherogenesis (plaque area) ([2]; AGER/apoE DKO mice, four-week infusion 1 μg/kg/min) | atherogenesis (percentage of the aortic arch surface area staining positive to Sudan IV) ([2]; apoE KO mice, four-week infusion 1 μg/kg/min vs untreated) | circulating levels of RAGE ligands ([3]; AGER/apoE DKO mice) | circulating levels of RAGE ligands (S100A8/A9, AGEs, dicarbonyl precursors) ([3]; apoE KO mice) | adhesion of labelled THP-1 cells to PMAEC monolayer [4] | recruitment of βarrestin2/Venus to AT1/Rluc8 ([5]; control) | recruitment of β-arrestin2/Venus proximal to RAGE/Rluc8 ([5]; in the presence of AT1 receptor) | aortic expression of pro-atherogenic mediators ([6]; AGER/apoE DKO mice) | aortic expression of genes coding for pro-atherogenic mediators ([6]; apoE KO mice) | induction of atherogenic mediators ([7]; aortae from AGER/apoE DKO mice) | expression of pro-atherogenic mediators ([7]; isolated aortae from apoE KO mice)
L362WQRRQRRGEERKAPENQEEEEERAELNQAEEPEAGESSTGGP404 (LWQRRQRRGEERKAPENQEEEEERAELNQAEEPEAGESSTGGP; listed as Homo sapiens) [S391A-RAGE362-404, S391A mutant RAGE cytosolic tail; non-functional substitute for RAGE] | Pull down | – | – | – | – | – | – | – | – | – | – | –
angiotensin II (DRVYIHPF) [Ang II, cognate ligand of AT1R] | – | prevents the increase in atherogenesis | increases atherogenesis | preventing | increases | increased adhesion | recruitment | recruitment | preventing | increases | prevents | increases
